Source: ChEMBL document CHEMBL1201862, “PubChem BioAssay data set” (2004)
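Exposure lasted 48 hours, with cells grown in 96-well plates and compounds tested at five concentrations. The concentration for 50% growth inhibition is given as GI50.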 Active and inactive are the calls of the source. No stated cut-off is given here; in the data, active = GI50 up to about 1.1 µM and inactive = higher.

Tests used:
Test in all cases: NCI-60 cell line screen, 48 h
EKVX = test system: EKVX
ACHN = test system: ACHN
MOLT-4 = test system: MOLT-4
SF-295 = test system: SF-295
SK-MEL-28 = test system: SK-MEL-28
U-251 = test system: U-251
NCI-H522 = test system: NCI-H522
SF-268 = test system: SF-268
SW-620 = test system: SW-620
OVCAR-3 = test system: OVCAR-3
OVCAR-5 = test system: OVCAR-5
SK-MEL-5 = test system: SK-MEL-5
UO-31 = test system: UO-31
HOP-62 = test system: HOP-62
SF-539 = test system: SF-539
UACC-62 = test system: UACC-62
OVCAR-4 = test system: OVCAR-4

SMILES | GI50 (EKVX) | GI50 (ACHN) | GI50 (MOLT-4) | GI50 (SF-295) | GI50 (SK-MEL-28) | GI50 (U-251) | GI50 (NCI-H522) | GI50 (SF-268) | GI50 (SW-620) | GI50 (OVCAR-3) | GI50 (OVCAR-5) | GI50 (SK-MEL-5) | GI50 (UO-31) | GI50 (HOP-62) | GI50 (SF-539) | GI50 (UACC-62) | GI50 (OVCAR-4)
O=C1[C@@H]2C3SC(c4ccccc43)[C@@H]2C(=O)N1c1ccccc1 | > 100 µM (inactive) | > 100 µM (inactive) | > 100 µM (inactive) | > 88.9 µM (inactive) | > 100 µM (inactive) | > 66.4 µM (inactive) | > 100 µM (inactive) | > 95.1 µM (inactive) | > 100 µM (inactive) | > 100 µM (inactive) | > 100 µM (inactive) | > 100 µM (inactive) | > 100 µM (inactive) | > 100 µM (inactive) | > 75 µM (inactive) | > 100 µM (inactive) | 
CCN(CC)c1ccc2c(c1)N=C1N=CC=CN1C2(c1ccc(N(C)C)cc1)c1ccc(N(C)C)cc1 | 9.73 µM (inactive) | 4.5 µM (inactive) | 2.47 µM (inactive) | 3.64 µM (inactive) | 10.8 µM (inactive) | 4.32 µM (inactive) | 1.74 µM (inactive) | 11 µM (inactive) |  | 3.16 µM (inactive) | 13.3 µM (inactive) | 11.9 µM (inactive) | 7.48 µM (inactive) | 10.9 µM (inactive) | 14.6 µM (inactive) | 10.7 µM (inactive) | 
CCCc1nn(C)c(CCC(=O)N(Cc2ccccc2)Cc2ccccc2)c1CC | > 100 µM (inactive) | > 100 µM (inactive) |  | > 100 µM (inactive) | > 100 µM (inactive) | > 100 µM (inactive) | > 100 µM (inactive) | > 100 µM (inactive) | > 100 µM (inactive) | > 100 µM (inactive) | > 100 µM (inactive) | > 100 µM (inactive) | > 100 µM (inactive) | > 100 µM (inactive) | > 100 µM (inactive) | > 100 µM (inactive) | > 100 µM (inactive)
COc1cc2c(c(OC)c1OC)-c1ccc(SC)c(=O)cc1C(CC(=O)Oc1cccc(F)c1)C2 (stereo unspecified) | 2.62 µM (inactive) | 0.243 µM (active) | 0.444 µM (active) | 0.075 µM (active) | 0.621 µM (active) | 0.115 µM (active) | 0.102 µM (active) | 0.653 µM (active) | 0.112 µM (active) | 0.0946 µM (active) | 4.55 µM (inactive) | 0.411 µM (active) | 0.753 µM (active) | 0.685 µM (active) | 0.111 µM (active) | 0.111 µM (active) | 2.05 µM (inactive)
COC(=O)C1=C(c2ccc(OC)c(OC)c2)OC(c2ccc(OC)c(OC)c2)C1 (stereo unspecified) | 39.7 µM (inactive) | 25.4 µM (inactive) | 8.17 µM (inactive) | 27.6 µM (inactive) | 45.1 µM (inactive) | 36.1 µM (inactive) |  | 35.6 µM (inactive) | 35.3 µM (inactive) | 33.9 µM (inactive) | 32.6 µM (inactive) | 15.6 µM (inactive) | 28.8 µM (inactive) | 59.4 µM (inactive) | 33.4 µM (inactive) | 35.6 µM (inactive) | 27.9 µM (inactive)
COc1ccc(/C=N/N=C(\N)NO)cc1OC | 26.2 µM (inactive) | 25.6 µM (inactive) | > 100 µM (inactive) | 46.9 µM (inactive) | > 100 µM (inactive) | 38.1 µM (inactive) | 26.3 µM (inactive) | 20.4 µM (inactive) | 65.2 µM (inactive) | > 100 µM (inactive) | 63 µM (inactive) | 15.2 µM (inactive) | 28.1 µM (inactive) | 31.9 µM (inactive) | 26.3 µM (inactive) | 23.3 µM (inactive) | 99.1 µM (inactive)
O=c1cc(-c2ccccc2)oc2cc(O)cc(O)c12 [CHRYSIN] | 23.1 µM (inactive) | 15.2 µM (inactive) | 18.3 µM (inactive) | 14.9 µM (inactive) | 16.8 µM (inactive) | 21.7 µM (inactive) | 15.9 µM (inactive) | 23.1 µM (inactive) |  | 28.8 µM (inactive) | 18.6 µM (inactive) | 10.1 µM (inactive) | 20.4 µM (inactive) | 31.4 µM (inactive) | 15.1 µM (inactive) | 21.5 µM (inactive) | 29.8 µM (inactive)
COc1ccc(-c2cc(=O)c3c(O)cc(O)cc3o2)c(OC)c1OC | > 100 µM (inactive) | > 10 µM (inactive) |  | 87.5 µM (inactive) | 94.2 µM (inactive) |  | 52.1 µM (inactive) | 85.3 µM (inactive) | 71.1 µM (inactive) | 38.9 µM (inactive) | 92.3 µM (inactive) |  |  | > 100 µM (inactive) | > 100 µM (inactive) | 97.1 µM (inactive) | 62.8 µM (inactive)
